Measurements published in patent US6914045B2, “Glycopeptide antibiotics” (Wyeth Holdings Corporation, priority 2001, dated 2005).
Values after ≈ are worked out from the molar mass of the structure shown.

How the values were obtained:
Assay in all cases: in vitro antibacterial evaluation, MIC by broth dilution
Format in all cases: cell-based
[1] = tested on: Escherichia coli; details: 18 hours at 35° C.
Method in brief: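 Read-out: the lowest concentration at which the test strain fails to grow. Serial dilutions (64-0.06 μg/mL) in Muller-Hinton II […], 5×10^5 CFU/mL inoculum, NCCLS M7-A2 procedure.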

[2] = tested on: Staphylococcus sp.; details: broth dilution, 18 hours at 35° C.
Method in brief: (§1)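 Broth dilution per NCCLS standard M7-A2 in Muller-Hinton II […], with an inoculum of 5×10^5 CFU/mL and antibiotic spanning 64-0.06 μg/mL. The MIC is the lowest concentration that inhibits growth of the organism.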

[3] = tested on: Streptococcus sp.; details: broth dilution, 18 hours at 35° C.
Method in brief: as §1

[4] = tested on: Enterococcus sp.; details: broth dilution, 18 hours at 35° C.
Method in brief: as §1

CC(C)CC(=O)OC1C(OC2C(CO)OC(Oc3ccc(CC4NC(=O)C(C(C)c5cccc(F)c5)NC(=O)CNC(=O)C(CO)NC(=O)C(C(O)C5CNC(=N)N5C5OC(CO)C(O)C(O)C5O)NC(=O)C(C(O)C5CNC(=N)N5)NC4=O)cc3)C(O)C2O)OC(CO)C(O)C1O (stereo not drawn) [Example 264a, Cyclo[glycyl-3-fluoro-β-methylphenylalanyl-O-[4-O-[2-O-(3-methylbutanoyl)hexopyranosyl]-hexopyranosyl]tyrosyl-3-(2-iminoimidazolidin-4-yl)seryl-3-(3-hexopyranosyl-2-iminoimidazolidin-4-yl)serylseryl]]
MIC Escherichia coli (ATCC 25922) ([1]; Escherichia coli (ATCC 25922)): 64 µg/mL (≈ 45.8 µM)
MIC Escherichia coli (GC 4559) ([1]; Escherichia coli (GC 4559)): >64 µg/mL
MIC Escherichia coli (GC 4560) ([1]; Escherichia coli (GC 4560)): 4 µg/mL (≈ 2.86 µM)
MIC Coagulase Negative Staphylococcus (GC 4547) [2]: 8 µg/mL (≈ 5.72 µM)
MIC Coagulase Negative Staphylococcus (GC 4548) [2]: 4 µg/mL (≈ 2.86 µM)
MIC Coagulase Negative Staphylococcus (GC 4549) [2]: 4 µg/mL (≈ 2.86 µM)
MIC Coagulase Negative Staphylococcus (GC 4551) [2]: 16 µg/mL (≈ 11.4 µM)
MIC Staphylococcus aureus (ATCC 29213) [2]: 16 µg/mL (≈ 11.4 µM)
MIC Staphylococcus aureus (GC 1131) [2]: 16 µg/mL (≈ 11.4 µM)
MIC Staphylococcus aureus (GC 4541) [2]: 16 µg/mL (≈ 11.4 µM)
MIC Staphylococcus aureus (GC 4542) [2]: 16 µg/mL (≈ 11.4 µM)
MIC Staphylococcus aureus (GC 4544) [2]: 8 µg/mL (≈ 5.72 µM)
MIC Staphylococcus aureus (GC 4545) [2]: 8 µg/mL (≈ 5.72 µM)
MIC Staphylococcus aureus-SMITH (GC 4543) [2]: 8 µg/mL (≈ 5.72 µM)
MIC Staphylococcus haemolyticus (GC 4546) [2]: 8 µg/mL (≈ 5.72 µM)
MIC Staphylococcus aureus (ATCC 29213) ([2]; strain ATCC 29213): 16 µg/mL (≈ 11.4 µM)
MIC Staphylococcus aureus (GC 1131) ([2]; strain GC 1131): 16 µg/mL (≈ 11.4 µM)
MIC Staphylococcus aureus (GC 4541) ([2]; strain GC 4541): 16 µg/mL (≈ 11.4 µM)
MIC Staphylococcus aureus (GC 4542) ([2]; strain GC 4542): 16 µg/mL (≈ 11.4 µM)
MIC Staphylococcus aureus (GC 4544) ([2]; strain GC 4544): 8 µg/mL (≈ 5.72 µM)
MIC Staphylococcus aureus (GC 4545) ([2]; strain GC 4545): 8 µg/mL (≈ 5.72 µM)
MIC Staphylococcus haemolyticus (GC 4546) ([2]; strain GC 4546): 8 µg/mL (≈ 5.72 µM)
MIC Coagulase Negative Staphylococcus (GC 4547) ([2]; strain GC 4547): 8 µg/mL (≈ 5.72 µM)
MIC Coagulase Negative Staphylococcus (GC 4548) ([2]; strain GC 4548): 4 µg/mL (≈ 2.86 µM)
MIC Coagulase Negative Staphylococcus (GC 4549) ([2]; strain GC 4549): 4 µg/mL (≈ 2.86 µM)
MIC Coagulase Negative Staphylococcus (GC 4551) ([2]; strain GC 4551): 16 µg/mL (≈ 11.4 µM)
MIC Staphylococcus aureus-SMITH (GC 4543) ([2]; strain SMITH GC 4543): 8 µg/mL (≈ 5.72 µM)
MIC Streptococcus agalactiae (GC 4564) ([3]; strain GC 4564): 8 µg/mL (≈ 5.72 µM)
MIC Streptococcus pyogenes (ID-3187) ([3]; strain ID-3187): 4 µg/mL (≈ 2.86 µM)
MIC Enterococcus avium (GC 4558) ([4]; Enterococcus avium (GC 4558)): >64 µg/mL
MIC Enterococcus faecalis (ATCC 29212) ([4]; Enterococcus faecalis (ATCC 29212)): 64 µg/mL (≈ 45.8 µM)
MIC Enterococcus faecalis (GC 4553) ([4]; Enterococcus faecalis (GC 4553)): >64 µg/mL
MIC Enterococcus faecalis (GC 4554) ([4]; Enterococcus faecalis (GC 4554)): >64 µg/mL
MIC Enterococcus faecium (GC 2243) ([4]; Enterococcus faecium (GC 2243)): >64 µg/mL
MIC Enterococcus faecium (GC 4556) ([4]; Enterococcus faecium (GC 4556)): 64 µg/mL (≈ 45.8 µM)
MIC Enterococcus faecium (GC 4557) ([4]; Enterococcus faecium (GC 4557)): 32 µg/mL (≈ 22.9 µM)
MIC Enterococcus faecalis (ATCC 29212) ([4]; strain ATCC 29212): 64 µg/mL (≈ 45.8 µM)
MIC Enterococcus faecalis (GC 2242) ([4]; strain GC 2242): 64 µg/mL (≈ 45.8 µM)
MIC Enterococcus faecium (GC 2243) ([4]; strain GC 2243): >64 µg/mL
MIC Enterococcus faecalis (GC 4552) ([4]; strain GC 4552): >64 µg/mL
MIC Enterococcus faecalis (GC 4553) ([4]; strain GC 4553): >64 µg/mL
MIC Enterococcus faecalis (GC 4554) ([4]; strain GC 4554): >64 µg/mL
MIC Enterococcus faecium (GC 4556) ([4]; strain GC 4556): 64 µg/mL (≈ 45.8 µM)
MIC Enterococcus faecium (GC 4557) ([4]; strain GC 4557): 32 µg/mL (≈ 22.9 µM)
MIC Enterococcus avium (GC 4558) ([4]; strain GC 4558): >64 µg/mL
